Active and inactive are the calls of the source.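 The calls were made as follows: active = less UV crosslinking of translation factor eIF4H to capped RNA at 100 µM than solvent-only control; inactive = the rest.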
Molecular target: Eukaryotic translation initiation factor 4H (Homo sapiens) (UniProt Q15056)
Assay: eIF4H binding to capped mRNA, inhibitors, SAR follow-up, orthogonal assay for translation initiation inhibitor project, biochemical, UV crosslinking, autoradiography (AID 449744)

SMILES	outcome
Cc1ccc(NC(=O)CN2C(=O)N/C(=C/c3ccccc3OCc3cccc(C(=O)O)c3)C2=O)cc1	inactive
COc1cc([N+](=O)[O-])ccc1NC(=O)COC(=O)c1ccc(NC(N)=O)cc1	inactive
O=C(Nc1cccc2ncccc12)c1ccccc1Cl	inactive
CCN1CCN(S(=O)(=O)c2ccc(Cl)c(C(=O)Nc3ccc(C(=O)N(CC)CC)cc3)c2)CC1	inactive
COc1cc([N+](=O)[O-])ccc1NC(=O)COC(=O)c1ccc2c(c1)NC(=O)CS2	inactive
O=C(Nc1ccccc1)C1CCN(C(=O)c2cccs2)CC1	inactive
O=C(Nc1cccc2ncccc12)c1ccc(Cl)cc1	inactive
CCOC(=O)c1ccc2c(c1)N(C)C(=O)c1ccccc1S2	inactive
COc1cc(/C=N/NC(=O)c2ccccc2)ccc1OCC(=O)Nc1ccc([N+](=O)[O-])cc1	inactive
CCOC(=O)N1CCC(NC(=O)c2cccc3c2C(=O)N(c2ccc(OC)cc2)C3)CC1	inactive
Cc1ccc(NC(=O)C2CCN(C(=O)c3cccs3)CC2)c(C)c1	inactive
CC(C)NC(=O)C(C)N1CCN(S(=O)(=O)c2ccc3ccccc3c2)CC1 (configuration not stated)	inactive
COc1ccc(N2Cc3cccc(C(=O)NC(C)CCc4ccco4)c3C2=O)cc1 (configuration not stated)	inactive
CC(C)c1ccc(OC(=O)c2cccc(S(=O)(=O)N3CCN(C)CC3)c2)cc1	inactive
CCn1c(=O)n(CC)c2cc(NC(=O)C(C)c3ccccc3)c(Br)cc21 (configuration not stated)	inactive
COc1cc(C=NNC(=O)c2ccccc2O)ccc1OCC(=O)Nc1ccccc1	inactive
COC(=O)c1c(Sc2ccccc2)c2ccccc2n1C	inactive
CCc1nnc(NC(=O)CSc2ccc(-c3ccco3)nn2)s1	inactive
O=C(COc1ccc(C=NNC(=O)c2ccc(O)cc2)cc1)Nc1ccc([N+](=O)[O-])cc1	inactive
Cc1ccc(OC(C)C(=O)Nc2ccc3c(c2)n(C)c(=O)n3C)c(C)c1 (configuration not stated)	inactive
CCOC(=O)c1ccc2c(c1)N(CC)C(=O)c1ccccc1S2	inactive
COc1ccc(N2Cc3cccc(C(=O)N4CCN(C(=O)c5ccco5)CC4)c3C2=O)cc1	inactive

— PubChem BioAssay AID449744 (Sanford-Burnham Center for Chemical Genomics, 2010)
